Here are results for 20 compounds from patent publication US5322846A, “4-methylthiazole derivatives, their methods of preparation and the pharmaceutical compositions in which they are present” (Institut de Recherches Chimiques et Biologiques Appliquees …, priority 1990, dated 1994).

Like-named read-outs stand apart in the source and are kept apart here.

The target in series [1] is T1, postsynaptic alpha-adrenergic receptors (Rattus norvegicus, UniProt P43140).
T1 construct: causes contraction of the isolated vas deferens; from tissue; host or cells: isolated rat vas deferens
T1 sequence (P43140 1-466): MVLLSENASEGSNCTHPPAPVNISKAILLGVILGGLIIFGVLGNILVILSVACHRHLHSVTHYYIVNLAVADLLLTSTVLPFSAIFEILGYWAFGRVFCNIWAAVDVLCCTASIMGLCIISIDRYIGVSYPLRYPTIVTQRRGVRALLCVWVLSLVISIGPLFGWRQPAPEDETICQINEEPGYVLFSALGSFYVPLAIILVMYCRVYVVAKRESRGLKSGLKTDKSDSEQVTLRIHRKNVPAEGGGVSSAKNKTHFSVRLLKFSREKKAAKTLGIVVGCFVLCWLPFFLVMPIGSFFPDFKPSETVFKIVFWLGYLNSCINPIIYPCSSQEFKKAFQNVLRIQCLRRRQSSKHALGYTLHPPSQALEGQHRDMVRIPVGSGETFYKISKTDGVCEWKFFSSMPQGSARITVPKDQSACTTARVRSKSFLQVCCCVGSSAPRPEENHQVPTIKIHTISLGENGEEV
Nature of the series: Alpha-blocking activity towards norepinephrine on isolated rat vas deferens. It counts as biochemical. The following applies: -log of concentration requiring doubled norepinephrine; for Kb: read-out: pA2 (converted). As for the experimental part: Stimulation of the postsynaptic alpha-adrenergic receptors by norepinephrine causes contraction of the isolated vas deferens.
The concentration of product in whose presence the norepinephrine concentration must be doubled in order to obtain the same effect as in the absence of said product is determined. The logarithm of this concentration, with the opposite sign, constitutes the pA2 of the products.
Their alpha-blocking activity is high since it appears for low concentrations of between 10^-6 M and 10^-8 M.

Series [2] relates to lethal effect of norepinephrine. The series is described as follows: Adrenolytic activity in vivo on the lethal effect of norepinephrine in rats. The following applies: for ED50: Rattus norvegicus, wake male rats, norepinephrine 0.4 mg.kg^-1 intravenous, prior administration of product, read-out: ED50 (dose which protects 50% of the animals); for adrenolytic activity in the whole animals: rats, in words. The method, then:
The intravenous injection of norepinephrine (0.4 mg.kg^-1) into wake male rats causes the death of 100% of the animals. The prior administration of a substance which has an alpha-blocking property makes it possible to reduce this toxicity.
The results are expressed in the form of the 50% effective dose (ED50), i.e. the dose in mg.kg^-1 which protects 50% of the animals (Table 5).

Series [3] in a line: Acute toxicity in mice (oral, LD50). The following applies: mouse, in vivo, male mice, single dose, 14-day observation. As for the experimental part: The products were administered orally in a single dose to male mice with an average weight of 22 g. The mortality was recorded after a 14-day observation period.
The results are expressed in the form of the 50% lethal dose (LD50), i.e. the theoretical dose in mg.kg^-1, administered orally, which causes the death of 50% of the animals.
The majority of the molecules have an LD50 of more than 1 g.kg^-1. These are therefore products with a low toxicity after a single administration.

Series [4] deals with femoral blood pressure and heart rate. The series is described as follows: Cardiovascular activity (blood pressure and heart rate) in anesthetized rats. The following applies: for hypotensive potential compared with nicardipine: ED25 values 5 min after I.V. injection, in words; for Heart rate, maximum effect in % / ED25: I.V., pentobarbital-anesthetized rats; for ED25: Rattus norvegicus, iv, 25% drop in average blood pressure. It counts as in vivo. The method, then:
The cardiovascular effects of three products were studied in rats anesthetized with pentobarbital and placed under artificial respiration. The femoral blood pressure and the heart rate are recorded by means of a GOULD-BRUSH apparatus.
The products are administered intravenously in increasing doses. Three animals are tested per product. The dose which causes a 25% drop in average blood pressure (ED25) was evaluated for each product and compared with nicardipine 1 to 5 min after administration.
The products have dose-dependent hypotensive effects but have little or no effect on the heart rate (Table 7). The most hypotensive in terms of the effective dose is B 1395 (ED25 of 0.004 mg.kg^-1).

[5] abbreviates: 1 min, 1 minute, read-out: Blood pressure: Hypotension, ED25 at 1 minute.
The mark [6] stands for this setting: 5 min, 5 minutes, read-out: Blood pressure: Hypotension, ED25 at 5 minutes.

What is called ED50 is the dose at which the effect has come halfway, by size or by number of responders. The term LD50 denotes the dose expected to kill half of the subjects tested. Lower therefore signals a more toxic substance. Take `Cc1ncsc1OCCN1CCN(c2cccc(C(F)(F)F)c2)CC1` [B 1194, 4-methyl-5-[2-(4-m-trifluoromethylphenylpiperazin-1yl)ethoxy]thiazole]: the Kb in series [1] is 2.57 µM. In series [2], the ED50 was 200 mg/kg. This compound also came in with an LD50 at 336 h in series [3] above 1000 mg/kg.

In the case of `COc1ccccc1N1CCN(CCOc2scnc2C)CC1` [B 1223, 4-methyl-5-[2-(4-o-methoxyphenylpiperazin-1-yl)ethoxy]thiazole], in series [1], the Kb was 0.269 µM. Besides, in series [2], the ED50 amounted to 13 mg/kg. In series [3], this compound yielded an LD50 at 336 h above 1000 mg/kg.

As for `Cc1ncsc1OCCN1CCN(c2ccc(F)cc2)CC1` [B 1227, 4-methyl-5-[2-(4-p-fluorophenylpiperazin-1-yl)ethoxy]thiazole], the Kb in series [1] was above 1 µM. The ED50 in series [2] was found to be 30 mg/kg. In addition, the LD50 at 336 h in series [3] came to 1000 mg/kg.

Take `CCCOc1ccccc1N1CCN(CCOc2scnc2C)CC1` [B 1242]: in series [2], the “adrenolytic activity in the whole animals” value (from here on “adrenolytic activity”) is “very active”.

Take `Cc1cc(Cl)ccc1N1CCN(CCOc2scnc2C)CC1` [B 1259, 4-methyl-5-[2-[4-(4-chloro-2-methylphenyl)piperazin-1-yl]ethoxy]thiazole]: the Kb in series [1] is 1.35 µM. Moreover, in series [2], the ED50 came to 45 mg/kg. Besides, in series [3], the LD50 at 336 h worked out at 630 mg/kg.

For the compound `Cc1ccc(Cl)cc1N1CCN(CCOc2scnc2C)CC1` [B 1313, 4-methyl-5-[2-[4-(5-chloro-2-methylphenyl)piperazin-1-yl]ethoxy]thiazole], the Kb in series [1] was 0.0813 µM. For the same compound, the 50% effective dose (ED50) in series [2] amounted to 109 mg/kg. Also, the LD50 at 336 h in series [3] came out at 770 mg/kg.

With `CCOc1cccc(N2CCN(CCOc3scnc3C)CC2)c1` [B 1325, 4-methyl-5-[2-(4-m-ethoxyphenylpiperazin-1-yl)-ethoxy]thiazole], the Kb in series [1] was 0.813 µM. Moreover, in series [2], the ED50 was found to be 49 mg/kg. The compound also yielded a 50% lethal dose (LD50) at 336 h in series [3] above 1000 mg/kg.

With `Cc1cccc(Cl)c1N1CCN(CCOc2scnc2C)CC1` [B 1366, 4-methyl-5-[2-[4-(6-chloro-2-methylphenyl)piperazin-1-yl]ethoxy]thiazole], the Kb in series [1] was above 1 µM. Moreover, the 50% effective dose (ED50) in series [2] stood at 100 mg/kg. The LD50 at 336 h in series [3] was 740 mg/kg.

As to `Cc1ncsc1OCC(O)CN1CCN(c2ccccc2O)CC1` (stereo not shown) [B 1396, 3-(4-o-hydroxyphenylpiperazin-1-yl)-1-(4-methylthiazolyl-5-oxy)propan-2-ol], the Kb in series [1] is 0.316 µM. Moreover, in series [2], the ED50 was determined as 0.6 mg/kg and the “adrenolytic activity” value is reported as “very active”. In addition, the LD50 at 336 h in series [3] was 315 mg/kg. Besides, in series [4], the “hypotensive potential compared with nicardipine” value is on record as “on a level with that of nicardipine” and the “Heart rate, maximum effect in %” value is reported as 0%. The ED25 in series [4] (setting [5]) was found to be 0.008 mg/kg. The ED25 in series [4] (setting [6]) is 0.06 mg/kg.

One may read the pA2 as a measure of antagonist potency on a negative log scale. A lower pA2 goes with a weaker antagonist. `Cc1cc(Cl)ccc1N1CCN(CC(O)COc2scnc2C)CC1` (stereo not shown) [B 1406, 3-[4-(4-chloro-2-methylphenyl)piperazin-1-yl]-1-(4-methylthiazolyl-5-oxy)propan-2-ol]: the pA2 in series [1] was found to be 6.40. Also, the ED50 in series [2] was 8.1 mg/kg. Further, in series [3], the LD50 at 336 h amounted to 515 mg/kg.

As to `Cc1ncsc1OCC(O)CN1CCN(c2ccccc2OC(C)C)CC1` (stereo not shown) [B 1429, 3-(4-o-isopropoxyphenylpiperazin-1-yl)-1-(4-methylthiazolyl-5-oxy)propan-2-ol], in series [1], the Kb is 0.00457 µM. In series [2], the ED50 amounted to 0.5 mg/kg and the “adrenolytic activity” value is given as “very active”. This compound also gave an LD50 at 336 h in series [3] of 428 mg/kg. The “Heart rate, maximum effect in %” value in series [4] is -5.1%. Besides, the ED25 in series [4] (setting [5]) came to 0.016 mg/kg. Besides, the ED25 in series [4] (setting [6]) was determined as 0.03 mg/kg.

`Cc1ncsc1OCCN1CCN(c2ccccc2O)CC1` [B 1430, 4-methyl-5-[2-(4-o-hydroxyphenylpiperazin-1-yl)-ethoxy]thiazole]: the Kb in series [1] was 0.229 µM. Moreover, in series [2], the ED50 came out at 8.3 mg/kg. Also, the LD50 at 336 h in series [3] amounted to 305 mg/kg.

Turning to `Cc1ncsc1OCC(O)CN1CCN(c2ccccc2OCC(C)C)CC1` (stereo not shown) [B 1431, 3-(4-o-phenylpiperazin-1-yl)-1-(4-methylthiazolyl-5-oxy)propan-2-ol], the Kb in series [1] was 0.00741 µM. In series [2], the 50% effective dose (ED50) worked out at 0.4 mg/kg and the “adrenolytic activity” value is listed as “very active”. Further, the LD50 at 336 h in series [3] stood at 1000 mg/kg. In series [4], the “hypotensive potential compared with nicardipine” value is on record as “on a level with that of nicardipine” and the “Heart rate, maximum effect in %” value is listed as -12%. Moreover, in series [4] (setting [5]), the ED25 worked out at 0.1 mg/kg. In series [4] (setting [6]), the ED25 was 0.24 mg/kg.

Turning to `Cc1ncsc1OCC(O)CN1CCN(c2cccc(C(F)(F)F)c2)CC1` (stereo not shown) [B 1489, 3-(4-m-trifluoromethylphenylpiperazin-1-yl)-1-(4-methylthiazolyl-5-oxy)propan-2-ol], the ED50 in series [2] came out at 59.7 mg/kg. For the same compound, the LD50 at 336 h in series [3] is above 1000 mg/kg.

On to `COc1ccccc1N1CCN(CC(O)COc2scnc2C)CC1` (stereo not shown) [B 1510, 3-(4-o-methoxyphenylpiperazin-1-yl)-1-(4-methylthiazolyl-5-oxy)propan-2-ol], for which the Kb in series [1] was 0.0214 µM. Also, in series [2], the ED50 was 0.52 mg/kg. For the same compound, the “adrenolytic activity” value in series [2] is given as “very active”. This compound gave an LD50 at 336 h in series [3] of 235 mg/kg. Besides, the “Heart rate, maximum effect in %” value in series [4] is on record as -6%. Further, the ED25 in series [4] (setting [5]) and in series [4] (setting [6]) was 0.01 mg/kg in each case.

As for `CCCCCOc1ccccc1N1CCN(CC(O)COc2scnc2C)CC1` (stereo not shown) [B 1525, 3-(4-o-pentoxyphenylpiperazin-1-yl)-1-(4-methylthiazolyl-5-oxy)propan-2-ol], in series [1], the Kb is 0.00794 µM. In addition, in series [2], the ED50 was 1.27 mg/kg and the “adrenolytic activity” value was “very active”. Moreover, the LD50 at 336 h in series [3] was above 1000 mg/kg. Further, the “Heart rate, maximum effect in %” value in series [4] is -8%. Also, the ED25 in series [4] (setting [5]) is 0.04 mg/kg. In addition, the ED25 in series [4] (setting [6]) came to 0.04 mg/kg.

As to `Cc1ncsc1OCC(O)CN1CCN(c2cccc(Cl)c2)CC1` (stereo not shown) [B 1548, 3-(4-m-chlorophenylpiperazin-1-yl)-1-(4-methylthiazolyl-5-oxy)propan-2-ol], in series [2], the ED50 amounted to 15.8 mg/kg and the “adrenolytic activity” value was “very active”. The compound also showed an LD50 at 336 h in series [3] above 500 mg/kg.

For the compound `Cc1ncsc1OCC(O)CN1CCN(c2ccccc2OCCC(C)C)CC1` (stereo not shown) [B 1552, 3-(4-o-isopentoxyphenylpiperazin-1-yl)-1-(4-methylthiazolyl-5-oxy)propan-2-ol], in series [1], the Kb is 0.0229 µM. Besides, in series [2], the ED50 was found to be 1.55 mg/kg and the “adrenolytic activity” value is “very active”. The LD50 at 336 h in series [3] was above 1000 mg/kg. In addition, in series [4], the “hypotensive potential compared with nicardipine” value is listed as “on a level with that of nicardipine” and the “Heart rate, maximum effect in %” value is -7.9%. Besides, the ED25 in series [4] (setting [5]) is 0.12 mg/kg. For the same compound, in series [4] (setting [6]), the ED25 amounted to 0.25 mg/kg.

In the case of `Cc1ncsc1OCC(O)CN1CCN(c2ccccc2OCC(C)(C)C)CC1` (stereo not shown) [B 1562, 3-(4-o-neopentoxyphenylpiperazin-1-yl)-1-(4-methylthiazolyl-5-oxy)propan-2-ol], the LD50 at 336 h in series [3] was above 1000 mg/kg.

On to `COC(=O)C1=C(C)NC(C)=C(C(=O)OCCN(C)Cc2ccccc2)C1c1cccc([N+](=O)[O-])c1` (stereo not shown) [NICARDIPINE, nicardipine, reference compound], for which, in series [4], the “Heart rate, maximum effect in %” value is listed as 0%. Also, the results for the ED25 in series [4] (setting [5]) and in series [4] (setting [6]) were 0.0015 mg/kg and 0.2 mg/kg, respectively.
